Experiment [1] concerns the target T1, human recombinant Aurora B (Homo sapiens, UniProt Q96GD4).
T1 construct: purchased ThermoFisher PR9210B
Nature of the experiment: Aurora B Kinase Biochemical Assay (ADP-Glo). The settings on record: selectivity ratio; Aurora B 10 nM, 114 μM ATP. The method, then:
Activity of human recombinant Aurora B (ThermoFisher, cat #PR9210B) was measured by quantification of adenosine diphosphate (ADP) using the ADP-Glo Kinase Assay Kit (Promega, cat #V9102). Test compounds were solubilized in dimethyl sulfoxide (DMSO) and dispensed into 384-well white polystyrene nonbinding plates (Greiner, cat #781094) using the Echo acoustic dispenser (Labcyte Inc.) in a 11-point 3-fold titration in duplicates. 5 μL of 20 nM Aurora B in assay buffer (50 mM HEPES, pH 7.5, 0.01% Brij-35, 0.01% BSA, 10 mM MgCl2, 1 mM EGTA, 1 mM DTT) was added to the plates. Test compounds and Aurora B were incubated for 15 minutes at room temperature (RT). Then 5 μL of a 228 μM adenosine triphosphate (ATP) (Promega, cat #V915B) and 9.3 μM Myelin Basic Protein (MBP) (SignalChem, cat #M42-51N) substrate solution in assay buffer was added and the reaction mixture was incubated for 2 hours at RT. The final concentration of Aurora b, ATP and MBP in the reactions were 10 nM, 114 μM and 4.7 μM, respectively. Reactions were stopped and the remaining ATP depleted by adding 10 μL of ADP-Glo reagent (Promega, cat #V912B) and incubating for 40 minutes at RT. The simultaneous conversion of the remaining ADP to ATP and measurement of the newly synthesized ATP was achieved by addition of 20 μL Kinase Detection reagent (Promega, cat #V9141B), incubation for 30 min at RT, and luminescence detection using the EnVision plate reader (PerkinElmer). Reactions lacking Aurora B were used as […]. Reactions containing DMSO alone were used as […]. The IC50 values reported in Table 2 were determined using four parameter non-linear regression curve fit.
On the technique in general: In ADP-Glo the light output rises with the ADP produced.

The next experiment addresses T2, human recombinant PLK4 (Homo sapiens, UniProt O00444).
T2 construct: purchased ThermoFisher PV6396
T2 sequence (O00444 1-970): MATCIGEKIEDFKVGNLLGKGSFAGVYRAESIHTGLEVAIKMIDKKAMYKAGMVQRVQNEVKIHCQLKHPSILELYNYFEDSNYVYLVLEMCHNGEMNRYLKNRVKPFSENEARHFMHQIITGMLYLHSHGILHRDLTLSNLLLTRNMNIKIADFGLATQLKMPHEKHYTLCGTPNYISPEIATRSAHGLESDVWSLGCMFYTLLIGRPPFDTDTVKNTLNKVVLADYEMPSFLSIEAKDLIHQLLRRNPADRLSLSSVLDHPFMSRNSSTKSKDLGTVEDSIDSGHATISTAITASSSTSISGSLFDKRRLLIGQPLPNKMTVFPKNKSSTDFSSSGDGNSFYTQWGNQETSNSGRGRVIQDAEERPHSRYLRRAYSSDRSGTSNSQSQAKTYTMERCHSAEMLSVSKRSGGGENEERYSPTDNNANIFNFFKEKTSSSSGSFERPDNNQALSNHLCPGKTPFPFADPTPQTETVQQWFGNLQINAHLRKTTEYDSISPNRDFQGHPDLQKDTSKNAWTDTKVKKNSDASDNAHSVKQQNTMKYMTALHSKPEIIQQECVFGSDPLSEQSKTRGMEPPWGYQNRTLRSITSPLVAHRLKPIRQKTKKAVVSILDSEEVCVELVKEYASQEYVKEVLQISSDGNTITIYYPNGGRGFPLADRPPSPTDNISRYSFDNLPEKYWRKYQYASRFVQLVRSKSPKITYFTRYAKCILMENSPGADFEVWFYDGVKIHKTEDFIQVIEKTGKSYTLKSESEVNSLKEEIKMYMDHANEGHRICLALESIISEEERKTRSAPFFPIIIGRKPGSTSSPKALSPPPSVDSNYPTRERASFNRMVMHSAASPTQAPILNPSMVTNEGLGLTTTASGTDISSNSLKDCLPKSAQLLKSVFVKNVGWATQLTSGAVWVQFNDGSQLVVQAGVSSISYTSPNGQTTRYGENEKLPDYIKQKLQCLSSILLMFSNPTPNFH
The experiment can be described thus: PLK4 Biochemical Assay (ADP-Glo). The settings on record: 0.5 nM PLK4, 8.0 μM ATP, 4.7 μM MBP, 6 hours at RT. The method, then: Activity of human recombinant PLK4 (ThermoFisher, cat #PV6396) was measured by quantification of adenosine diphosphate (ADP) using the ADP-Glo Kinase Assay Kit (Promega, cat #V9102). […] 5 μL of 1.0 nM PLK4 protein in assay buffer (50 mM HEPES, pH 7.5, 0.01% Brij-35, 0.01% BSA, 10 mM MgCl2, 1 mM EGTA, 1 mM DTT) was added to the plates. Test compounds and PLK4 were incubated for 15 minutes at room temperature (RT). […] Reactions were stopped and the remaining ATP depleted by adding 10 μL of ADP-Glo reagent (Promega, cat #V912B) and incubating for 40 minutes at RT. The simultaneous conversion of the remaining ADP to ATP and measurement of the newly synthesized ATP was achieved by addition of 20 μL Kinase Detection reagent (Promega, cat #V914B), incubation for 30 min at RT, and luminescence detection using the EnVision plate reader (PerkinElmer). […] The IC50 values reported in Table 2 were determined using four parameter non-linear regression curve fit.

The test system of the next experiment is CHP134. Nature of the experiment: CHP134 CellTiter-Glo (CTG) Assay. The experiment is classed as cell-based. Conditions: Homo sapiens, CHP-134, 120 h; viable cells by CellTiter-Glo after 5 days. The method, then:
[…] cells (DSMZ-German Collection of Microorganisms and Cell Cultures, Braunschweig Germany) were cultured in RPMI 1640 supplemented with 10% fetal bovine serum, penicillin (100 U/ml), 1% L-Glutamine and streptomycin ([…]). Cells were seeded (200 cells/well) in 384-well plates for 16 hours. On day two, nine serial 1:3 compound dilutions were made in DMSO in a 96-well plate. The compounds were then further diluted into growth media using a BRAVO robot (Agilent, Santa Clara, CA). The diluted compounds were then added to quadruplicate wells in the 384-well cell plate and incubated at 37° C. and 5% CO2. After 5 days, relative numbers of viable cells were measured by luminescence using CellTiter-Glo® (Promega) according to the manufacturer's instructions and read on a SPARK Multimode Microplate Reader (Tecan, Mannedorf Switzerland). The IC50 calculations for the values reported in Table 2 were carried out using Prism 6.0 software (GraphPad, San Diego).

pIC50: −log10 of the molar value.

The values that follow come from US20260108527A1, “POLO LIKE KINASE 4 INHIBITORS” (ORIC Pharmaceuticals, Inc., priority 2022, published 2026).

By pIC50 is commonly meant the negative decadic logarithm of the IC50, by convention in mol/L.

T1 sequence (Q96GD4 whole entry): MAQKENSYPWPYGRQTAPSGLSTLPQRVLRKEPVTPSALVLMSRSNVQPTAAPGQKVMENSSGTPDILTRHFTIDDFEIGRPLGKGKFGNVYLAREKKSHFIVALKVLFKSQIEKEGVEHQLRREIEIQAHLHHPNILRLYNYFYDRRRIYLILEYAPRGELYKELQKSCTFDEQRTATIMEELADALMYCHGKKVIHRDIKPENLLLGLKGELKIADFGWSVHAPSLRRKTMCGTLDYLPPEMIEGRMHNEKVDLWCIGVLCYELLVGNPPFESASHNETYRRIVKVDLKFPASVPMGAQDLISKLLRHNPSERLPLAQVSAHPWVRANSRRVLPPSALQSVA

As to `CCOc1cc(-n2cncn2)cnc1Nc1n[nH]c2cc([C@@H]3C[C@@]34C(=O)Nc3ccc(OC)cc34)ccc12` [Example 38, (1R,2S)-2-(3-{[3-ethoxy-5-(1H-1,2,4-triazol-1-yl)pyridin-2-yl]amino}-1H-indazol-6-yl)-5′-methoxyspiro[cyclopropane-1,3′-indol]-2′(1′H)-one], the “[Aurora B IC50 (nM)]/[PLK4 IC50 (nM)]” value in experiment [1] is reported as 559.1. For the same molecule, the figures for the pIC50 on human recombinant PLK4 and with CHP134 were 9.09 and 6.58, respectively.
Regarding `COc1ccc2c(c1)[C@]1(C[C@H]1c1ccc3c(Nc4cc(-c5cscn5)ccc4OC)n[nH]c3c1)C(=O)N2` [Example 15, (1R,2S)-5′-methoxy-2-{3-[2-methoxy-5-(1,3-thiazol-4-yl)anilino]-1H-indazol-6-yl}spiro[cyclopropane-1,3′-indol]-2′(1′H)-one], the “[Aurora B IC50 (nM)]/[PLK4 IC50 (nM)]” value in experiment [1] is on record as 511.8461. Moreover, the negative logarithm of the IC50 (pIC50) on human recombinant PLK4 is 9.19; with CHP134, 7.03.
`CCOc1cnc(-c2nccs2)nc1Nc1n[nH]c2cc([C@@H]3C[C@@]34C(=O)Nc3ccc(OC)cc34)ccc12` [Example 44, (1R,2S)-2-(3-{[5-ethoxy-2-(1,3-thiazol-2-yl)pyrimidin-4-yl]amino}-1H-indazol-6-yl)-5′-methoxyspiro[cyclopropane-1,3′-indol]-2′(1′H)-one]: in experiment [1], the “[Aurora B IC50 (nM)]/[PLK4 IC50 (nM)]” value stood at 844.375. Besides, the pIC50 at human recombinant PLK4 is 9.80; with CHP134, 7.66.
Take `COc1ccc2c(c1)[C@]1(C[C@H]1c1ccc3c(Nc4nc(-c5cnco5)ncc4OC)n[nH]c3c1)C(=O)N2` [Example 40, (1R,2S)-5′-methoxy-2-(3-{[5-methoxy-2-(1,3-oxazol-5-yl)pyrimidin-4-yl]amino}-1H-indazol-6-yl)spiro[cyclopropane-1,3′-indol]-2′(1′H)-one]: the “[Aurora B IC50 (nM)]/[PLK4 IC50 (nM)]” value in experiment [1] is recorded as 410.7334. The pIC50 is 9.55 on human recombinant PLK4 and 6.62 in the experiment with CHP134.
For `CCOc1cc(-c2cnccn2)ccc1Nc1n[nH]c2cc([C@@H]3C[C@@]34C(=O)Nc3ccc(OC)cc34)ccc12` [Example 7, (1R,2S)-2-{3-[2-ethoxy-4-(pyrazin-2-yl)anilino]-1H-indazol-6-yl}-5′-methoxyspiro[cyclopropane-1,3′-indol]-2′(1′H)-one], in experiment [1], the “[Aurora B IC50 (nM)]/[PLK4 IC50 (nM)]” value amounted to 702.6392. For the same molecule, the results for the pIC50 at human recombinant PLK4 and with CHP134 were 8.77 and 6.78, respectively.
For the molecule `COc1ccc2c(c1)[C@]1(C[C@H]1c1ccc3c(Nc4cc(-c5cocn5)cnc4OC)n[nH]c3c1)C(=O)N2` [Example 42, (1R,2S)-5′-methoxy-2-(3-{[2-methoxy-5-(1,3-oxazol-4-yl)pyridin-3-yl]amino}-1H-indazol-6-yl)spiro[cyclopropane-1,3′-indol]-2′(1′H)-one], the “[Aurora B IC50 (nM)]/[PLK4 IC50 (nM)]” value in experiment [1] stood at 465.6990. Further, the figures for the pIC50 at human recombinant PLK4 and with CHP134 were 8.88 and 6.55, respectively.
Regarding `COc1ccc2c(c1)[C@]1(C[C@H]1c1ccc3c(Nc4cc(-c5cnn(C)c5)cnc4OC)n[nH]c3c1)C(=O)N2` [Example 26, (1R,2S)-5′-methoxy-2-(3-{[2-methoxy-5-(1-methyl-1H-pyrazol-4-yl)pyridin-3-yl]amino}-1H-indazol-6-yl)spiro[cyclopropane-1,3′-indol]-2′(1′H)-one], the “[Aurora B IC50 (nM)]/[PLK4 IC50 (nM)]” value in experiment [1] came to 921.6946. Further, the pIC50 is 9.08 on human recombinant PLK4 and 6.77 with CHP134.
Regarding `COc1ccc2c(c1)[C@]1(C[C@H]1c1ccc3c(Nc4cc(-c5nccs5)ccc4OC)n[nH]c3c1)C(=O)N2` [Example 14, (1R,2S)-5′-methoxy-2-{3-[2-methoxy-5-(1,3-thiazol-2-yl)anilino]-1H-indazol-6-yl}spiro[cyclopropane-1,3′-indol]-2′(1′H)-one], the “[Aurora B IC50 (nM)]/[PLK4 IC50 (nM)]” value in experiment [1] was 897.1830. Also, the pIC50 on human recombinant PLK4 is 9.19; in the experiment on CHP134, 7.05.
For the molecule `CCOc1cc(-n2cncn2)ccc1Nc1n[nH]c2cc([C@@H]3C[C@@]34C(=O)Nc3ccc(OC)cc34)ccc12` [Example 10, (1R,2S)-2-{3-[2-ethoxy-4-(1H-1,2,4-triazol-1-yl)anilino]-1H-indazol-6-yl}-5′-methoxyspiro[cyclopropane-1,3′-indol]-2′(1′H)-one], the “[Aurora B IC50 (nM)]/[PLK4 IC50 (nM)]” value in experiment [1] is recorded as 396.7684. For the same molecule, the pIC50 was 9.25 on human recombinant PLK4 and 6.92 in the experiment with CHP134.
For `COc1ccc2c(c1)[C@]1(C[C@H]1c1ccc3c(Nc4cc(-c5cnco5)ccc4OC)n[nH]c3c1)C(=O)N2` [Example 18, (1R,2S)-5′-methoxy-2-{3-[2-methoxy-5-(1,3-oxazol-5-yl)anilino]-1H-indazol-6-yl}spiro[cyclopropane-1,3′-indol]-2′(1′H)-one] the same measures were 520, 9.15 and 6.77.
Regarding `CCOc1cc(-c2cn(C)cn2)ccc1Nc1n[nH]c2cc([C@@H]3C[C@@]34C(=O)Nc3ccc(OC)cc34)ccc12` [Example 29, (1R,2S)-2-{3-[2-ethoxy-4-(1-methyl-1H-imidazol-4-yl)anilino]-1H-indazol-6-yl}-5′-methoxyspiro[cyclopropane-1,3′-indol]-2′(1′H)-one], the “[Aurora B IC50 (nM)]/[PLK4 IC50 (nM)]” value in experiment [1] is listed as 211.2020. Further, the pIC50 was 8.71 on human recombinant PLK4 and 6.33 in the experiment with CHP134.
Take `COc1ccc2c(c1)[C@]1(C[C@H]1c1ccc3c(Nc4cc(-c5ccon5)ccc4OC)n[nH]c3c1)C(=O)N2` [Example 32, (1R,2S)-5′-methoxy-2-{3-[2-methoxy-5-(1,2-oxazol-3-yl)anilino]-1H-indazol-6-yl}spiro[cyclopropane-1,3′-indol]-2′(1′H)-one]: the “[Aurora B IC50 (nM)]/[PLK4 IC50 (nM)]” value in experiment [1] is recorded as 1218.8633. In addition, the values for the pIC50 at human recombinant PLK4 and in the experiment on CHP134 were 9.08 and 6.97, respectively.
